# According to paper PMC12250129, “Exploring the Therapeutic Potential of ^177Lu-PSMA-617 in a Mouse Model of Prostate Cancer Bone Metastases” (International Journal of Molecular Sciences, 2025):
# Tests used:
# [1] = Radiochemical stability in human serum (iTLC); format: in vitro ADME
# Procedure: A precursor amount of 50 nmol was labeled with Lutetium-177, achieving a radiochemical yield of over 99% and a molar activity of 25.5 GBq/μmol within 15 min at 95 °C. The radiochemical purity of ^177Lu-PSMA-617 (Rt = 7.47 min) exceeded 98%, as determined by radio-HPLC and iTLC analyses (Figure 1). To assess radiolytic stability, ^177Lu-PSMA-617 was incubated in human serum at 4, 25, and 37 °C for 1, 24, 48, and 72 h. […] However, after 72 h, less than 5% and 4% of free ^177Lu was detected at 4 °C and 25 °C, respectively. […] These findings are consistent with other studies. […] The ability to maintain radiolabeling over an extended period reinforces its viability for targeted radiopharmaceutical therapy and molecular imaging in oncology.
# Radiolabeling was conducted as previously described. A total of 1 GBq of non-carrier added lutetium-177 (Isotopia Molecular Imaging, Petach Tikva, Israel) was mixed with 100 μL of a sodium acetate solution (0.4 M, pH 5.5), 1.25 μL of an ascorbic acid solution (20% w/w), and 5 μL of a PSMA-617 solution (10 mM, Ontores Biotechnology Co., Ltd., Hangzhou, China). The mixture solution was subjected to heating at a temperature of 95 °C while being placed on a shaker for 15 min. The labeling efficiency was measured using instant thin-layer chromatography (iTLC) on the glass microfiber chromatography paper impregnated with a silica gel (Agilent Technologies, Santa Clara, CA, USA), where 100 mM EDTA in 100 mM ammonium acetate acts as a mobile phase as described previously. The iTLC sheets were measured using a radioactive scanner (AR-2000 radio-TLC Imaging Scanner, Bioscan, Evreux, France). The labeling rate of >90% was acceptable as performed in the in vitro and in vivo studies. Radiochemical purity was also analyzed by high-performance liquid chromatography (HPLC) with a UV detector (220 nm) and a radio detector using a Zorbax SB-C18 column (Agilent Technologies, Santa Clara, CA, USA). The flow rate was 0.8 mL/min with the gradient mobile phase going from the 80% A buffer (0.1% TFA in water) and 20% B buffer (0.1% TFA in acetonitrile) to the 40% B buffer within 20 min. A sterile 0.9% sodium chloride solution was added before injections in mice. The radiochemical stability of ^177Lu-PSMA-617 in human serum up to 96 h at 4, 25, and 37 °C was tested by iTLC.
# PSMA-positive tumors = test system: PSMA-positive tumors; design: method as in PMID 31399803; conditions: single intravenous dose of 111 MBq; cited from earlier work
# [2] = Absorbed radiation dose calculations (OLINDA/EXM), extrapolated from mouse data; design: species or system human; conditions: 70 kg male adult
# Procedure: Radiation doses (mGy/GBq) for major human organs (male) were calculated using the OLINDA/EXM Version 1.1 software. The organ-specific radiation absorbed doses following the administration of ^177Lu-PSMA-617 to humans were estimated based on residence times derived from mouse data and are presented in Table 1. […] The overall effective dose was 0.127 mSv/MBq. These findings provide critical insights into the dosimetry profile of ^177Lu-PSMA-617, aiding in the assessment of its safety and therapeutic potential.
# The absorbed radiation dose calculations were performed as previously reported. For the estimation of mean absorbed doses in humans, the relative organ mass scaling method was used. The calculated mean value of the percentage injected activity per gram of tissue (%IA/g) for the organs in mice was extrapolated to the uptake amount in the organs of a 70 kg adult using the following formula:[(%IA/gorgan)animal × (kgTB weight)animal] × (gorgan/kgTB weight)human = (%IA/organ)human
# The extrapolated values (%IA) in human organs at 1, 4, 24, and 48 h were fitted with exponential biokinetic models and integrated to obtain the number of disintegrations in the source organs; this information was entered into the OLINDA/EXM computer program. The integrals (MBq-s) for 11 organs, including heart contents (blood), the heart, the liver, the spleen, the lung, the kidney, muscle, the brain, bone, the small intestine, and the remainder of the body, were evaluated and used for the dosimetry evaluation.
compound,measurement,setting,value
O=C([O-])CN1CCN(CC(=O)[O-])CCN(CC(=O)NCC2CCC(C(=O)N[C@@H](Cc3ccc4ccccc4c3)C(=O)NCCCC[C@H](NC(=O)N[C@@H](CCC(=O)O)C(=O)O)C(=O)O)CC2)CCN(CC(=O)[O-])CC1.[177Lu+3] (stereo partly drawn) [^177Lu-PSMA-617],free activity,"[1]; human serum, 4 °C, after 2 h",1.2%
same,free activity,"[1]; human serum, 25 °C, after 2 h",less than 1.1%
same,free activity,"[1]; human serum, after 48 h, at 4, 25 and 37 °C",no detectable free activity
same,free 177Lu,"[1]; human serum, after 72 h, 4 °C",less than 5%
same,free 177Lu,"[1]; human serum, after 72 h, 25 °C",< 4%
same,release of free activity,"[1]; human serum, up to 72 h at 37 °C",without any release of free activity
same,free 177Lu,"[1]; over a 72 h observation period, 37 °C",less than 5%
same,median survival,PSMA-positive tumors,130 days
same,Estimated Dose,[2]; Adrenals,8.15E−04 mSv/MBq
same,Estimated Dose,[2]; Brain,3.54E−05 mSv/MBq
same,Estimated Dose,[2]; Breasts,7.86E−03 mSv/MBq
same,Estimated Dose,[2]; Kidneys,2.19E−04 mSv/MBq
same,Estimated Dose,[2]; LLI Wall,2.01E−02 mSv/MBq
same,Estimated Dose,[2]; Liver,5.81E−04 mSv/MBq
same,Estimated Dose,[2]; Lungs,1.47E−03 mSv/MBq
same,Estimated Dose,[2]; Muscle,6.33E−05 mSv/MBq
same,Estimated Dose,[2]; Osteogenic Cells,4.98E−03 mSv/MBq
same,Estimated Dose,[2]; Pancreas,8.27E−04 mSv/MBq
same,Estimated Dose,[2]; Red Marrow,1.47E−02 mSv/MBq
same,Estimated Dose,[2]; Skin,1.54E−03 mSv/MBq
same,Estimated Dose,[2]; Small Intestine,8.52E−04 mSv/MBq
same,Estimated Dose,[2]; Spleen,6.92E−05 mSv/MBq
same,Estimated Dose,[2]; Stomach Wall,1.98E−02 mSv/MBq
same,Estimated Dose,[2]; Testes,2.16E−02 mSv/MBq
same,Estimated Dose,[2]; Thymus,8.01E−04 mSv/MBq
same,Estimated Dose,[2]; Thyroid,8.08E−03 mSv/MBq
same,Estimated Dose,[2]; ULI Wall,8.45E−04 mSv/MBq
same,Estimated Dose,[2]; Urinary Bladder Wall,8.32E−03 mSv/MBq
same,Estimated Dose,[2]; Uterus,8.48E−04 mSv/MBq
same,Effective Dose,[2]; overall effective dose,1.27E−01 mSv/MBq
